Source: patent US20250059231A1, “Protease inhibitors” (priority 2021, published 2025)
Where a SMILES comes first, the peptide text is derived from it. [ ]: non-standard residue; d: D form. The star is where a group is joined. Palmitoyl = CCCCCCCCCCCCCCCC(=O)*; Phg = N[C@H](C(=O)O)c1ccccc1; Pip = O=C(O)[C@@H]1CCCCN1

Target: T1, WNV protease (West Nile virus, UniProt P06935)
T1 construct: a trypsin-like serine protease domain in the N-terminal region of the flaviviral NS3 proteins
Assay: WNV protease assay (analogous procedure)
Assay type: biochemical
Details: read-out: IC50 for WNNV

T1 sequence (P06935 1424-1463): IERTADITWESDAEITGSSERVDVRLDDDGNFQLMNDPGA
T1 sequence (P06935 1502-1679): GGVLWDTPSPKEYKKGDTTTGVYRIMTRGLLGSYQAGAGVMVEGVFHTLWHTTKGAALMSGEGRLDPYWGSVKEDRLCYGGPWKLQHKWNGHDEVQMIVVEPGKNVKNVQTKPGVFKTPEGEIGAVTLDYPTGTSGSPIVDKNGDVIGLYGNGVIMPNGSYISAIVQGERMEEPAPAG

Which IC50 does the source give for `CCCCCCCCCCCCCCCC(=O)N[C@@H](CCCCN)C(=O)N1CCC[C@H]1C(=O)N[C@H](C(=O)N[C@@H](CCCCN)C(N)=O)c1ccccc1` [compound 13] (Palmitoyl-KP[Phg]K-NH2) here?
Its IC50 is no more than 40 µM.

`CCCCCCCCCCCCCCCC(=O)N[C@@H](CCCCN)C(=O)N1CCCC[C@H]1C(=O)N[C@H](C(=O)N[C@@H](CCCCN)C(N)=O)c1ccccc1` [compound 16] (Palmitoyl-K[Pip][Phg]K-NH2) was tested. Which IC50 did it give?
Its IC50 is no more than 40 µM.

For `CCCCCCCCCCCCCCCC(=O)N[C@@H](CCCCN)C(=O)N[C@@H](C)C(=O)N[C@@H](C)C(=O)N[C@@H](Cc1ccccc1)C(N)=O` [compound 17] (Palmitoyl-KAAF-NH2), which IC50 is on record?
The IC50 was no more than 40 µM.

With `CCCCCCCCCCCCCCCC(=O)N[C@@H](C)C(=O)N[C@@H](CCCNC(=N)N)C(=O)N[C@@H](CCC(N)=O)C(=O)N[C@@H](CCCCN)B(O)O` [compound 39] as the compound, how does the IC50 read?
The IC50 was no more than 40 µM.

With `CCCCCCCCCCCCCCCC(=O)N[C@@H](CCCNC(=N)N)C(=O)N[C@@H](CCC(N)=O)C(=O)N[C@@H](CCCCN)B(O)O` [compound 41] as the compound, how does the IC50 read?
The IC50 was no more than 40 µM.

Which IC50 does the source give for `CC(=O)N[C@@H](C)C(=O)N[C@@H](CCCNC(=N)N)C(=O)N[C@@H](CCC(N)=O)C(=O)N[C@@H](CCCCN)B(O)O` [compound 48] here?
The IC50 was no more than 40 µM.

Target: T2, DENV protease (Dengue virus type 2, UniProt P29990)
T2 construct: The virus-encoded dengue protease comprises the amino-terminal 180 amino acids of NS3 (NS3pro) of the polyprotein
Assay: biochemical
Details: at 1 μM; read-out: inhibition of DENV
Experimental: (§1) Dilutions were made starting from 10 mM stock solutions in DMSO and final concentrations were measured in triplicates. The inhibitors were preincubated for 15 min with DENV protease (100 nM) in the assay buffer (50 mM Tris-HCl pH 9.0, ethylene glycol (10% v/v), and 0.0016% Brij 58). The enzymatic reaction was initiated by the addition of the FRET substrate (final concentration 50 μM) to obtain a final assay volume of 100 μL per well. The enzymatic activity was monitored for 15 min and determined as a slope of relative fluorescence units per second (RFU/s) for each concentration. The mean of the triplicates were plotted against the corresponding concentration in CDDVault to determine the IC50-values. Analogous procedures were used to determine the inhibitory potency on WNV (Kühl et al., J. Med. Chem. 2020, 63 (15): 8179-8197) and ZIKA protease (Nitsche et al., ACS Med. Chem. Lett. 2019 Feb. 14; 10 (2): 168-174). For selectivity screening of active candidates, similar biochemical assays with human serine proteases trypsin (Weigel et al., J. Med. Chem. 2015, 58 (19), 7719-7733.) and/or thrombin (Nitsche et al., J. Med. Chem. 2013, 56 (21), 8389-8403) were used.

T2 sequence (P29990 1398-1437): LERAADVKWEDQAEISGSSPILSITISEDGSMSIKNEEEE
T2 sequence (P29990 1476-1653): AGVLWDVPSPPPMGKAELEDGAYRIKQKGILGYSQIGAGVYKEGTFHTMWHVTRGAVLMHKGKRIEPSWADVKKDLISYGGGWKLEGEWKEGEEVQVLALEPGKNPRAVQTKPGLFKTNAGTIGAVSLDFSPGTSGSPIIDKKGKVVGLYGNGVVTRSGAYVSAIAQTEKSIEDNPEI

For `CCCCCCCCCCCCCCCC(=O)N[C@@H](C)C(=O)N[C@@H](CCCNC(=N)N)C(=O)N[C@@H](CCC(N)=O)C(=O)N[C@@H](CCCCN)B(O)O` [compound 39], which inhibition at 1 µM is on record?
Its inhibition at 1 µM is no less than 20%.

For `CCCCCCCCCCCCCCCC(=O)N[C@@H](CCCNC(=N)N)C(=O)N[C@@H](CCC(N)=O)C(=O)N[C@@H](CCCCN)B(O)O` [compound 41], which inhibition at 1 µM is on record?
The inhibition at 1 µM was no less than 20%.

For `CC(=O)N[C@@H](C)C(=O)N[C@@H](CCCNC(=N)N)C(=O)N[C@@H](CCC(N)=O)C(=O)N[C@@H](CCCCN)B(O)O` [compound 48], which inhibition at 1 µM is on record?
The inhibition at 1 µM was no less than 20%.

Same assay, conditions: at 50 μM; read-out: inhibition of DENV

For `CCCCCCCCCCCCCCCC(=O)N[C@@H](CCCCN)C(=O)N1CCC[C@H]1C(=O)N[C@H](C(=O)N[C@@H](CCCCN)C(N)=O)c1ccccc1` [compound 13] (Palmitoyl-KP[Phg]K-NH2), which inhibition at 50 µM is on record?
Its inhibition at 50 µM is no less than 25%.

Which inhibition at 50 µM does the source give for `CCCCCCCCCCCCCCCC(=O)N[C@@H](CCCCN)C(=O)N1CCCC[C@H]1C(=O)N[C@H](C(=O)N[C@@H](CCCCN)C(N)=O)c1ccccc1` [compound 16] (Palmitoyl-K[Pip][Phg]K-NH2) here?
Its inhibition at 50 µM is no less than 25%.

For `CCCCCCCCCCCCCCCC(=O)N[C@@H](CCCCN)C(=O)N[C@@H](C)C(=O)N[C@@H](C)C(=O)N[C@@H](Cc1ccccc1)C(N)=O` [compound 17] (Palmitoyl-KAAF-NH2), which inhibition at 50 µM is on record?
Its inhibition at 50 µM is no less than 25%.

`CCCCCCCCCCCCCCCC(=O)N[C@@H](C)C(=O)N[C@@H](CCCNC(=N)N)C(=O)N[C@@H](CCC(N)=O)C(=O)N[C@@H](CCCCN)B(O)O` [compound 39] was tested. Which inhibition at 50 µM did it give?
Its inhibition at 50 µM is no less than 25%.

How did the inhibition at 50 µM turn out when `CCCCCCCCCCCCCCCC(=O)N[C@@H](CCCNC(=N)N)C(=O)N[C@@H](CCC(N)=O)C(=O)N[C@@H](CCCCN)B(O)O` [compound 41] was run?
The inhibition at 50 µM was no less than 25%.

With `CC(=O)N[C@@H](C)C(=O)N[C@@H](CCCNC(=N)N)C(=O)N[C@@H](CCC(N)=O)C(=O)N[C@@H](CCCCN)B(O)O` [compound 48] as the compound, how does the inhibition at 50 µM read?
Its inhibition at 50 µM is no less than 25%.

Target: T3, ZIKA protease (Zika virus, UniProt Q32ZE1)
T3 construct: a trypsin-like serine protease domain in the N-terminal region of the flaviviral NS3 proteins
Assay: biochemical
Details: not given
Experimental: as §1, with “By catalytic activity of the protease, the cleaved substrate results in increased fluorescence that can be monitored using a BMG Labtech Fluostar OPTIMA Microtiter fluorescence plate reader (excitation wavelength of 320 nm and a monitored emission wavelength of 405 nm). Dilutions” for “Dilutions”

T3 sequence (Q32ZE1 1499-1676): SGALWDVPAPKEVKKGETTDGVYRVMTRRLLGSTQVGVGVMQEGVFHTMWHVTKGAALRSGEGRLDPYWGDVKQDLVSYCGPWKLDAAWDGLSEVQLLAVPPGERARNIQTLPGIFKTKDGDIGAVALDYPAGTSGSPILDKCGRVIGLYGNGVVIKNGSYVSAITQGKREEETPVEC
T3 sequence (Q32ZE1 1421-1460): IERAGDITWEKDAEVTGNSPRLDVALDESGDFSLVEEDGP

For `CCCCCCCCCCCCCCCC(=O)N[C@@H](C)C(=O)N[C@@H](CCCNC(=N)N)C(=O)N[C@@H](CCC(N)=O)C(=O)N[C@@H](CCCCN)B(O)O` [compound 39], which IC50 is on record?
The IC50 was no more than 25 µM.

Which IC50 does the source give for `CC(=O)N[C@@H](C)C(=O)N[C@@H](CCCNC(=N)N)C(=O)N[C@@H](CCC(N)=O)C(=O)N[C@@H](CCCCN)B(O)O` [compound 48] here?
Its IC50 is no more than 25 µM.

Same assay, conditions: at 1 μM; read-out: inhibition of ZIKV

With `CCCCCCCCCCCCCCCC(=O)N[C@@H](C)C(=O)N[C@@H](CCCNC(=N)N)C(=O)N[C@@H](CCC(N)=O)C(=O)N[C@@H](CCCCN)B(O)O` [compound 39] as the compound, how does the inhibition at 1 µM read?
The inhibition at 1 µM was no less than 10%.

`CC(=O)N[C@@H](C)C(=O)N[C@@H](CCCNC(=N)N)C(=O)N[C@@H](CCC(N)=O)C(=O)N[C@@H](CCCCN)B(O)O` [compound 48] was tested. Which inhibition at 1 µM did it give?
Its inhibition at 1 µM is no less than 10%.

Same assay, conditions: at 50 μM; read-out: inhibition of ZIKV

Which inhibition at 50 µM does the source give for `CCCCCCCCCCCCCCCC(=O)N[C@@H](C)C(=O)N[C@@H](CCCNC(=N)N)C(=O)N[C@@H](CCC(N)=O)C(=O)N[C@@H](CCCCN)B(O)O` [compound 39] here?
Its inhibition at 50 µM is no less than 65%.

For `CC(=O)N[C@@H](C)C(=O)N[C@@H](CCCNC(=N)N)C(=O)N[C@@H](CCC(N)=O)C(=O)N[C@@H](CCCCN)B(O)O` [compound 48], which inhibition at 50 µM is on record?
The inhibition at 50 µM was no less than 65%.

Target: human Thrombin (Homo sapiens, UniProt P00734)
Assay: Selectivity screening, human serine protease thrombin
Assay type: biochemical
Details: at 5 μM; read-out: inhibition of human Thrombin
Experimental: as §1, with “By catalytic activity of the protease, the cleaved substrate results in increased fluorescence that can be monitored using a BMG Labtech Fluostar OPTIMA Microtiter fluorescence plate reader (excitation wavelength of 320 nm and a monitored emission wavelength of 405 nm). Dilutions” for “Dilutions”

`CCCCCCCCCCCCCCCC(=O)N[C@@H](CCCCN)C(=O)N1CCC[C@H]1C(=O)N[C@H](C(=O)N[C@@H](CCCCN)C(N)=O)c1ccccc1` [compound 13] (Palmitoyl-KP[Phg]K-NH2) was tested. Which inhibition at 5 µM did it give?
The inhibition at 5 µM was less than 5%.

How did the inhibition at 5 µM turn out when `CCCCCCCCCCCCCCCC(=O)N[C@@H](CCCCN)C(=O)N1CCCC[C@H]1C(=O)N[C@H](C(=O)N[C@@H](CCCCN)C(N)=O)c1ccccc1` [compound 16] (Palmitoyl-K[Pip][Phg]K-NH2) was run?
The inhibition at 5 µM was less than 5%.

How did the inhibition at 5 µM turn out when `CCCCCCCCCCCCCCCC(=O)N[C@@H](CCCCN)C(=O)N[C@@H](C)C(=O)N[C@@H](C)C(=O)N[C@@H](Cc1ccccc1)C(N)=O` [compound 17] (Palmitoyl-KAAF-NH2) was run?
Its inhibition at 5 µM is less than 5%.

Target: T1, WNV protease
Assay: WNV protease assay (analogous procedure)
Assay type: biochemical
Details: at 50 μM
Experimental: as §1, with “By catalytic activity of the protease, the cleaved substrate results in increased fluorescence that can be monitored using a BMG Labtech Fluostar OPTIMA Microtiter fluorescence plate reader (excitation wavelength of 320 nm and a monitored emission wavelength of 405 nm). Dilutions” for “Dilutions”

`CCCCCCCCCCCCCCCC(=O)N[C@@H](CCCCN)C(=O)N1CCC[C@H]1C(=O)N[C@H](C(=O)N[C@@H](CCCCN)C(N)=O)c1ccccc1` [compound 13] (Palmitoyl-KP[Phg]K-NH2) was tested. Which inhibition at 50 µM did it give?
Its inhibition at 50 µM is no less than 25%.

`CCCCCCCCCCCCCCCC(=O)N[C@@H](CCCCN)C(=O)N1CCCC[C@H]1C(=O)N[C@H](C(=O)N[C@@H](CCCCN)C(N)=O)c1ccccc1` [compound 16] (Palmitoyl-K[Pip][Phg]K-NH2) was tested. Which inhibition at 50 µM did it give?
Its inhibition at 50 µM is no less than 25%.

`CCCCCCCCCCCCCCCC(=O)N[C@@H](CCCCN)C(=O)N[C@@H](C)C(=O)N[C@@H](C)C(=O)N[C@@H](Cc1ccccc1)C(N)=O` [compound 17] (Palmitoyl-KAAF-NH2) was tested. Which inhibition at 50 µM did it give?
The inhibition at 50 µM was no less than 25%.

For `CC(=O)N[C@@H](C)C(=O)N[C@@H](CCCNC(=N)N)C(=O)N[C@@H](CCC(N)=O)C(=O)N[C@@H](CCCCN)B(O)O` [compound 48], which inhibition at 50 µM is on record?
The inhibition at 50 µM was no less than 25%.

Target: human Trypsin (Homo sapiens, UniProt P07477)
Assay: Selectivity screening, human serine protease trypsin
Assay type: biochemical
Details: at 5 μM; read-out: inhibition of human Trypsin
Experimental: as §1, with “By catalytic activity of the protease, the cleaved substrate results in increased fluorescence that can be monitored using a BMG Labtech Fluostar OPTIMA Microtiter fluorescence plate reader (excitation wavelength of 320 nm and a monitored emission wavelength of 405 nm). Dilutions” for “Dilutions”

`CCCCCCCCCCCCCCCC(=O)N[C@@H](CCCCN)C(=O)N1CCC[C@H]1C(=O)N[C@H](C(=O)N[C@@H](CCCCN)C(N)=O)c1ccccc1` [compound 13] (Palmitoyl-KP[Phg]K-NH2) was tested. Which inhibition at 5 µM did it give?
The inhibition at 5 µM was less than 10%.

`CCCCCCCCCCCCCCCC(=O)N[C@@H](CCCCN)C(=O)N1CCCC[C@H]1C(=O)N[C@H](C(=O)N[C@@H](CCCCN)C(N)=O)c1ccccc1` [compound 16] (Palmitoyl-K[Pip][Phg]K-NH2) was tested. Which inhibition at 5 µM did it give?
Its inhibition at 5 µM is less than 10%.

How did the inhibition at 5 µM turn out when `CCCCCCCCCCCCCCCC(=O)N[C@@H](CCCCN)C(=O)N[C@@H](C)C(=O)N[C@@H](C)C(=O)N[C@@H](Cc1ccccc1)C(N)=O` [compound 17] (Palmitoyl-KAAF-NH2) was run?
The inhibition at 5 µM was less than 10%.

Same assay, conditions: at 25 μM; read-out: inhibition of human Trypsin

How did the inhibition at 25 µM turn out when `CCCCCCCCCCCCCCCC(=O)N[C@@H](CCCCN)C(=O)N1CCC[C@H]1C(=O)N[C@H](C(=O)N[C@@H](CCCCN)C(N)=O)c1ccccc1` [compound 13] (Palmitoyl-KP[Phg]K-NH2) was run?
Its inhibition at 25 µM is less than 20%.

For `CCCCCCCCCCCCCCCC(=O)N[C@@H](CCCCN)C(=O)N1CCCC[C@H]1C(=O)N[C@H](C(=O)N[C@@H](CCCCN)C(N)=O)c1ccccc1` [compound 16] (Palmitoyl-K[Pip][Phg]K-NH2), which inhibition at 25 µM is on record?
The inhibition at 25 µM was less than 20%.

With `CCCCCCCCCCCCCCCC(=O)N[C@@H](CCCCN)C(=O)N[C@@H](C)C(=O)N[C@@H](C)C(=O)N[C@@H](Cc1ccccc1)C(N)=O` [compound 17] (Palmitoyl-KAAF-NH2) as the compound, how does the inhibition at 25 µM read?
Its inhibition at 25 µM is less than 20%.
